# Reference: patent US8569264B2, “Antibacterial 4,5-substituted aminoglycoside analogs having multiple substituents” (ISIS Pharmaceuticals, Inc., priority 2005, dated 2013)
# Key:
# [1] = tested on: P. aurginosa ATCC 25416; experiment: MIC, P. aurginosa ATCC 25416; format: cell-based
# Experimental: (§1) The MIC assays are carried out in 150 μL volume in duplicate in 96-well clear flat-bottom plates. The bacterial suspension from an overnight culture growth in appropriate medium is added to a solution of test compound in 4% DMSO in water. Final bacterial inoculum is approximately 10^5-10^6 CFU/well. […] Both ampicillin and tetracycline are used as antibiotic-positive controls in each screening assay for S. pyogenes, E. coli imp-, E. coli, S. aureus, E. faecalis, K. pneumoniae and P. vulgaris. Ciprofloxacin is used as an antibiotic positive control in each screening assay for P. aeruginosa.
# (§2) The following compounds were prepared using methods illustrated in the previous examples. The compounds were also examined in standard bacterial assays against E. Coli, S. Aureus, P. aurginosa, K. pneumoniae, P. vulgaris, and A. baumannii to determine activities. Each of the bacterial cultures that are available from ATCC (www.atcc.org) is identified by its ATCC number. A. baumannii is gentamicin sensitive Acinetobacter baumannii #2 from Walter Reed.
# [2] = tested on: K. pneumoniae ATCC 10031; experiment: MIC, K. pneumoniae ATCC 10031; format: cell-based; conditions: for MIC: Klebsiella pneumoniae
# Experimental: as §1, §2
# [3] = tested on: P. aurginosa ATCC 29248; experiment: MIC, P. aurginosa ATCC 29248; format: cell-based
# Experimental: as §1, §2
# [4] = tested on: S. Aureus; experiment: MIC, S. Aureus; format: cell-based; conditions: for MIC: Staphylococcus aureus
# Outline: (§3)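 Broth microdilution in duplicate, 150 μL: overnight-culture bacteria were added to compound in 4% DMSO in water. Final inoculum was about 10^5–10^6 CFU/well.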
# [5] = tested on: E. coli ATCC 25922; experiment: MIC, E. coli ATCC 25922; format: cell-based; conditions: for MIC: Escherichia coli
# Experimental: as §1, §2
# [6] = tested on: gentamicin sensitive Acinetobacter baumannii #2 from Walter Reed; experiment: MIC, A. baumannii WReed 2; format: cell-based; conditions: for MIC: Acinetobacter baumannii
# Experimental: as §1, §2
# [7] = tested on: E. Coli; experiment: MIC, E. Coli; format: cell-based; conditions: for MIC: Escherichia coli
# Outline: as §3
# [8] = tested on: S. aureus ATCC 13709; experiment: MIC, S. aureus ATCC 13709; format: cell-based; conditions: for MIC: Staphylococcus aureus
# Experimental: as §1, §2
# [9] = tested on: P. vulgaris ATCC 8427; experiment: MIC, P. vulgaris ATCC 8427; format: cell-based; conditions: for MIC: Proteus vulgaris
# Experimental: as §1, §2
# [10] = biological target: 16S ribosomal subunit RNA target; experiment: Mass spectrometry based binding assay (FTICR), 16S; conditions: Example 106
# Outline: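 Binding to the 16S ribosomal subunit RNA target was measured by FTICR mass spectrometry. Ligands or ligand mixtures were prepared at several concentrations in 10 μL of aqueous 100 mM ammonium acetate buffer with 33% isopropyl alcohol. Samples were infused at 1 μL/min into a negative-mode electrospray source, and ions were held 1 sec in an RF-only hexapole. Complex/free RNA ratios versus ligand concentration were fitted to a binding polynomial to obtain KD.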
# [11] = biological target: 18S ribosomal subunit RNA target; experiment: Mass spectrometry based binding assay (FTICR), 18S; conditions: Example 106
# Outline: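 Ligands at varying concentrations were mixed with 2.5 or 5 μM RNA in 100 mM ammonium acetate with 33% isopropyl alcohol, then analysed by negative-mode ESI-FTICR. Complex/free RNA ion ratios plotted against ligand concentration were fitted to a second- or higher-order binding polynomial to give KD.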
# [12] = tested on: E. coli S30 bacterial extract (pBestLuc firefly luciferase reporter); experiment: Coupled bacterial transcription/translation assay; format: biochemical; conditions: Example 106; read-out: Trans/Trans IC50
# Outline: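 Coupled transcription/translation of firefly luciferase from 1 μg pBestLuc (tac promoter) in E. coli S30 extract, with or without test compound. Reaction 35 min at 37° C., then functional luciferase detected by luminescence.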
# [13] = tested on: Staphylococcus aureus (Smith Strain ATCC 13709); experiment: Staphylococcus aureus mouse protection assay; format: in vivo, mice; conditions: Staph Conc. 10^6, 10% Mucin, the 13th table
# Experimental: Two of the novel aminoglycoside compounds of the invention were examined for their anitbacterial activity against staphylococcus aureus. Mice were fed with autoclaved commercial food pellets and sterile water ad libitum. Animals were inoculated intraperitoneally with 0.5 mL/mouse of the indicated concentration of S. aureus (ATCC 13709) containing 10% mucin. There were 10 mice in each treatment group and compounds were administered subcutaneously one and 3 hour after infection. Compounds 15a (R4═R5═CH3) and 15j (R4═H, R5═(CH2)2C6H5)) were used at 75 mg/kg, 37.5 mg/kg, 18.8 mg/kg, 9.4 mg/kg, 4.7 mg/kg, 2.3 mg/kg, 1.17 mg/kg and 0.5 mg/kg. Amakacin, paromomycin and neomycin were used as the positive controls at concentrations of 2 mg/kg, 1 mg/kg and 0.5 mg/kg.
# Test compound was administered as an aqueous buffer solution (phosphate buffered saline (PBS), pH=7.4).
smiles,measurement,setting,value
NCC1OC(OC2C(CO)OC(OC3C(O)C(N)CC(N)C3OC3OC(CNCCc4ccc(F)cc4)C(O)C(O)C3N)C2O)C(N)C(O)C1O (stereo not shown) [Compound 15o],MIC P. aurginosa ATCC 25416,[1]; Example 111,>40 µM
same,MIC K. pneumoniae ATCC 10031,[2]; Example 111,0.6 to 1.3 µM
same,MIC P. aurginosa ATCC 29248,[3]; Example 111,>40 µM
same,MIC S. Aureus,[4]; Example 109,0.2 to 0.3 µM
same,MIC E. coli ATCC 25922,[5]; Example 111,1.3 to 2.5 µM
same,MIC A. baumannii WReed 2,[6]; Example 111,10 to 20 µM
same,MIC E. Coli.,[7]; Example 109,0.6 to 1.2 µM
same,MIC S. aureus ATCC 13709,[8]; Example 111,0.3 to 0.6 µM
same,MIC P. vulgaris ATCC 8427,[9]; Example 111,>40 µM
"NCC[C@H](O)C(=O)N[C@@H]1C[C@H](N)[C@@H](O[C@H]2O[C@H](CO)[C@@H](O)[C@H](O)[C@H]2N)[C@H](O[C@@H]2O[C@H](CO)[C@@H](O[C@H]3O[C@@H](CN)[C@@H](O)[C@H](O)[C@H]3N)[C@H]2O)[C@H]1O [Compound 67, N-1-haba paromomycin]",MIC,[1]; Example 110,1.3 to 2.5 µM
same,MIC,[1]; Example 111,10 to 20 µM
same,MIC,"[2]; ATCC10031, Example 110",0.6 to 1.3 µM
same,MIC,"[2]; ATCC10031, Example 111",0.6 to 1.3 µM
same,MIC,[3]; Example 110,5 to 10 µM
same,MIC,[3]; Example 111,5 to 10 µM
same,MIC,[4]; Example 107,1.3 to 2.5 µM
same,MIC,"[5]; ATCC25922, Example 110",2.5 to 5 µM
same,MIC,"[5]; ATCC25922, Example 111",5 to 10 µM
same,MIC,[6]; Example 110,2.5 to 5 µM
same,MIC,[6]; Example 111,5 to 10 µM
same,MIC,[7]; Example 107,5 to 10 µM
same,MIC,"[8]; ATCC13709, Example 110",20 to 40 µM
same,MIC,"[8]; ATCC13709, Example 111",1.3 to 2.5 µM
same,MIC,"[9]; ATCC8427, Example 110",5 to 10 µM
same,MIC,"[9]; ATCC8427, Example 111",2.5 to 5 µM
"NC[C@@H]1O[C@H](O[C@H]2[C@@H](O)[C@H](O[C@@H]3[C@@H](O)[C@H](N)C[C@H](N)[C@H]3O[C@H]3O[C@H](CO)[C@@H](O)[C@H](O)[C@H]3N)O[C@@H]2CO)[C@H](N)[C@@H](O)[C@@H]1O [paromomycin, reference compound]",MIC,[1]; Example 111,> 40 µM
same,MIC,"[2]; ATCC10031, Example 111",0.6 to 1.3 µM
same,MIC,[3]; Example 111,> 40 µM
same,Kd,[10],0.6 µM
same,MIC,[4]; Example 106,3 to 5 µM
same,MIC,"[5]; ATCC25922, Example 111",5 to 10 µM
same,MIC,[6]; Example 111,2.5 to 5 µM
same,Kd,[11],4.8 µM
same,IC50,[12],0.1 µM
same,MIC,[7]; Example 106,20 to 40 µM
same,# Dead mice/Total mice in group,[13]; 0.5 mg/kg subcutaneously,10/10
same,# Dead mice/Total mice in group,[13]; 1 mg/kg subcutaneously,10/10
same,# Dead mice/Total mice in group,[13]; 2 mg/kg subcutaneously,9/10
same,MIC,"[8]; ATCC13709, Example 111",10 to 20 µM
same,MIC,"[9]; ATCC8427, Example 111",> 40 µM
